Results reported in patent publication US10471046B2, “Method for treating, preventing, or reducing the risk of skin infection” (Melinta Subsidiary Corp., priority 2014, dated 2019).
Converted amounts (≈) assume the structure as drawn. Read-outs that look alike come from different tables or passages of the source.

Experiments:
[1] = test system: intracellular S. aureus (including linezolid-resistant); settings: cited from earlier work
B. thetaiotaomicron [2] = experiment: microbe, parasite or virus in culture; assay type: cell-based; settings: Bacteroides thetaiotaomicron, ATCC29741; B. thetaiotaomicron ATCC 29741; read-out: MIC, agar dilution
G. vaginalis [3] = experiment: Broth microdilution MIC; assay type: cell-based; settings: for MIC: Gardnerella vaginalis
[4] = test system: mammalian cells (e.g., defense cells, macrophages, lung cells, and non-phagocytic cells); settings: cited from earlier work
[5] = Approximate solubility in solvents by aliquot addition; assay type: physicochemical; settings: ambient temperature
Experimental: Solubilities of the radezolid free base and radezolid HCl salt in various solvents were estimated and are shown in Tables 10 and 11, respectively, below. A weighed sample was treated with aliquots of test solvent at ambient temperature. Complete dissolution of the test material was determined by visual inspection. Solubility was estimated based on the total solvent used to provide complete dissolution. The actual solubility may be greater than the approximate solubility calculated because of the use of solvent aliquots that were too large or due to a slow rate of dissolution. […] If complete dissolution was achieved as a result of only one aliquot addition, the solubility is expressed as “greater than.” The approximate solubilities were rounded to the nearest whole number.

[6] = Human exposure (AUC 0-24); settings: in vivo; human @ 300 mg dose
Enterococcus faecalis = experiment: MIC against ribosome-based resistance phenotypes; assay type: cell-based; settings: read-out: Minimum Inhibitory Concentration (MIC)
Source text: (§1) Furthermore, the antibiotic compounds can be assayed for anti-proliferative or anti-infective properties on a cellular level. For example, where the target organism is a microorganism, the activity of compounds of interest can be assayed by growing the microorganisms of interest in media either containing or lacking the compound. Growth inhibition can be indicative that the molecule could be acting as a protein synthesis inhibitor. […] For this purpose, a panel of bacterial strains can be assembled to include a variety of target pathogenic species, some containing resistance mechanisms that have been characterized. Use of such a panel of organisms permits the determination of structure-activity relationships not only in regards to potency and spectrum, but also with a view to obviating resistance mechanisms.

Staphylococcus aureus = experiment: MIC against ribosome-based resistance phenotypes; assay type: cell-based; settings: read-out: Minimum Inhibitory Concentration (MIC)
Source text: as §1

S. aureus = experiment: Broth microdilution MIC; assay type: cell-based; settings: Staphylococcus aureus, ATCC29213; S. aureus ATCC 29213
F. magna [7] = experiment: Broth microdilution MIC; assay type: cell-based; settings: Finegoldia magna, ATCC15794; F. magna ATCC 15794
B. thetaiotaomicron [8] = experiment: microbe, parasite or virus in culture; assay type: cell-based; settings: Bacteroides thetaiotaomicron, ATCC29741; B. thetaiotaomicron ATCC 29741; read-out: MIC, broth microdilution
G. vaginalis [9] = experiment: Agar dilution MIC (CLSI reference method); assay type: cell-based; settings: for MIC: Gardnerella vaginalis
Legionella pneumophila = settings: cited from earlier work
Listeria monocytogenes = settings: cited from earlier work
P. granulosum = experiment: Broth microdilution MIC; assay type: cell-based
B. fragilis [10] = experiment: Broth microdilution MIC; assay type: cell-based; settings: Bacteroides fragilis, ATCC25285; B. fragilis ATCC 25285
all organisms = experiment: Agar dilution MIC, range over the isolates tested; assay type: cell-based; settings: read-out: agar dilution MICs for all organisms
[11] = Long-term rat safety study; assay type: in vivo
Source text: There was 100% survival in all dose groups.

[12] = assay type: physicochemical; settings: radezolid salt forms in HPLC grade water, ambient temperature; listed as Free base
Enterococcus faecium = experiment: MIC against ribosome-based resistance phenotypes; assay type: cell-based; settings: Enterococcus faecium A6349; VanA + Lin-R (G2576U); read-out: Minimum Inhibitory Concentration (MIC)
Source text: as §1, with “mechanisms. The assays can be performed in microtiter trays according to conventional methodologies as published by The National Committee for Clinical Laboratory Standards (NCCLS) guidelines (NCCLS. M7-A5-Methods for Dilution Antimicrobial Susceptibility Tests for Bacteria That Grow Aerobically; Approved Standard-Fifth Edition. NCCLS Document M100-S12/M7 (ISBN 1-56238-394-9)).” for “mechanisms.”

F. magna [13] = experiment: Agar dilution MIC (CLSI reference method); assay type: cell-based
B. fragilis [14] = experiment: Agar dilution MIC (CLSI reference method); assay type: cell-based; settings: Bacteroides fragilis, ATCC25285; B. fragilis ATCC 25285
[15] = ATCC14018, G. vaginalis ATCC 14018
[16] = ATCC49145, G. vaginalis ATCC 49145

In the case of `CC(=O)NC[C@H]1CN(c2ccc(-c3ccc(CNCc4cnn[nH]4)cc3)c(F)c2)C(=O)O1` [Radezolid, (5S)—N-[3-(2-Fluoro-4′-{[(1H-[1,2,3]triazol-4-ylmethyl)-amino]-methyl}-biphenyl-4-yl)-2-oxo-oxazolidin-5-ylmethyl]-acetamide], the intracellular killing [1] is listed as “kills”, the MIC (B. thetaiotaomicron [2]) is listed as greater than 8 mg/L and the “broth microdilution, fold more active than linezolid” value (G. vaginalis [3]; G. vaginalis 49145) is listed as 8 fold. For the same compound, the MIC (G. vaginalis [3]; [15]) was 0.125 mg/L (≈ 0.285 µM), the MIC (G. vaginalis [3]; [16]) was 0.06 mg/L (≈ 0.137 µM) and the “fraction accumulating in the cytosol of cells” value ([4]; cytosol) was “Approximately 60%”. The “fraction accumulating in the lysosome” value ([4]; lysosome) was “approximately 40%”, the “accumulation in mammalian cells, extent greater than linezolid” value ([4]; relative to linezolid) was 17 fold and the solubility ([5]; 2,2,2-trifluoroethanol (TFE), organic solvent or mixture, thermodynamic from solid, 2,2,2-trifluoroethanol (TFE)) was no less than 54 mg/mL. For the same compound, the solubility ([5]; HFIPA/methanol (1:3 by volume), organic solvent or mixture, thermodynamic from solid, HFIPA/Methanol (1:3 by volume)) was less than 1 mg/mL, the solubility ([5]; acetone, organic solvent or mixture, thermodynamic from solid) was less than 1 mg/mL and the solubility ([5]; acetonitrile, organic solvent or mixture, thermodynamic from solid) was less than 1 mg/mL. It also gave a solubility ([5]; dichloromethane, organic solvent or mixture, thermodynamic from solid) of less than 1 mg/mL, a solubility ([5]; ethyl acetate, organic solvent or mixture, thermodynamic from solid) of less than 1 mg/mL and a solubility ([5]; ethyl ether, organic solvent or mixture, thermodynamic from solid) of less than 1 mg/mL. It also gave a solubility ([5]; hexafluoroisopropanol (HFIPA), organic solvent or mixture, thermodynamic from solid) of no less than 245 mg/mL, a solubility ([5]; hexamethylphosphoramide, organic solvent or mixture, thermodynamic from solid, Hexamethyl-phosphoramide) of less than 26 mg/mL and a solubility ([5]; methanol, organic solvent or mixture, thermodynamic from solid) of less than 1 mg/mL. The solubility ([5]; tetrahydrofuran (THF), organic solvent or mixture, thermodynamic from solid) was less than 1 mg/mL, the solubility ([5]; water, thermodynamic from solid) was less than 1 mg/mL and the AUC(0-t) [6] was 3.33 µg·h/mL. The MIC (Enterococcus faecalis; ATCC29212, Enterococcus faecalis ATCC29212, phenotype QC) was 0.25 mg/L (≈ 0.57 µM), the MIC (Enterococcus faecalis; ATCC29212, Enterococcus faecalis ATCC29212-P5, Lin-R (G2576U)) was 1 mg/L (≈ 2.28 µM) and the MIC (Enterococcus faecalis; Enterococcus faecalis 1069, VanB) was 0.25 mg/L (≈ 0.57 µM). For the same compound, the MIC (Staphylococcus aureus; ATCC29213, Staphylococcus aureus ATCC29213, phenotype QC) was 1 mg/L (≈ 2.28 µM), the MIC (Staphylococcus aureus; Staphylococcus aureus 01A1095, Mac-R) was 1 mg/L (≈ 2.28 µM) and the MIC (Staphylococcus aureus; Staphylococcus aureus A7820, Lin-R (G2576U) + Mac-R (ErmC)) was 16 mg/L. The MIC (S. aureus) was 2 mg/L (≈ 4.56 µM), the MIC (F. magna [7]) was 0.125 mg/L (≈ 0.285 µM) and the MIC (B. thetaiotaomicron [8]) was 8 mg/L (≈ 18.2 µM). The “agar dilution MIC, fold more potent than linezolid” value (G. vaginalis [9]; G. vaginalis) was 8 fold, the MIC (G. vaginalis [9]; [15]) was 0.06 mg/L (≈ 0.137 µM) and the MIC (G. vaginalis [9]; [16]) was 0.06 mg/L (≈ 0.137 µM). The intracellular killing (Legionella pneumophila) was “kills”, the intracellular killing (Listeria monocytogenes) was “kills” and the “broth microdilution, fold more active than linezolid” value (P. granulosum; P. granulosum) was 8 fold. For the same compound, the MIC (P. granulosum; P. granulosum ATCC 25746) was 0.125 mg/L (≈ 0.285 µM), the MIC (B. fragilis [10]) was 2 mg/L (≈ 4.56 µM) and the MIC (all organisms) was 0.06 to 1 mg/L (≈ 0.137 to 2.28 µM). For the same compound, the survival ([11]; both, rat, in vivo) was 100%, the “Safety margin (Rat NOAEL AUC/Human efficacious AUC)” value ([11]; calculated from rat and human AUC 0-24) was 30.8x and the AUC(0-t) ([11]; male, rat, in vivo, 200 mg/kg) was 102 µg·h/mL. The “changes in hematology, coagulation, clinical chemistry, or urinalysis” value ([11]; rat, in vivo) was “No test article-related changes”, the “safety in long-term rat study” value ([11]; rat, in vivo) was “good safety” and the solubility [12] was less than 0.02 mg/mL. For the same compound, the MIC (Enterococcus faecium) was 0.5 mg/L, the “agar dilution MIC, fold more potent than linezolid” value (F. magna [13]; F. magna) was 4 fold and the “difference between broth and agar dilution MICs” value (F. magna [13]; F. magna) was 4 fold. For the same compound, the MIC (F. magna [13]; Finegoldia magna, ATCC15794, F. magna ATCC 15794) was 0.5 mg/L (≈ 1.14 µM) and the MIC (B. fragilis [14]) was 4 mg/L (≈ 9.12 µM).
